From PubChem BioAssay (NCI)
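Dose response: 5 concentrations. Exposure: 48 h. Format: 96-well plates. Endpoint: linear interpolation; highest concentration if not reached. GI50 is the concentration that inhibits growth by half. TGI: total growth inhibition.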

How the values were obtained:
Assay in all cases: growth of human tumour cells (NCI), 48 h
OVCAR-5 ovarian = test system: OVCAR-5 ovarian
HCT-15 colon = test system: HCT-15 colon
UO-31 renal = test system: UO-31 renal
OVCAR-3 ovarian = test system: OVCAR-3 ovarian
CCRF-CEM leukemia = test system: CCRF-CEM leukemia
MDA-N = test system: MDA-N
SF-295 CNS = test system: SF-295 CNS
SK-MEL-28 melanoma = test system: SK-MEL-28 melanoma
SF-268 CNS = test system: SF-268 CNS
EKVX NSCLC = test system: EKVX NSCLC
M14 melanoma = test system: M14 melanoma
786-0 renal = test system: 786-0 renal
MALME-3M melanoma = test system: MALME-3M melanoma
NCI-H226 lung = test system: NCI-H226 lung
SK-MEL-2 melanoma = test system: SK-MEL-2 melanoma
HT29 colon = test system: HT29 colon
K-562 leukemia = test system: K-562 leukemia
MCF7 breast = test system: MCF7 breast
OVCAR-4 ovarian = test system: OVCAR-4 ovarian

Row | SMILES | TGI (OVCAR-5 ovarian) [µM] | TGI (HCT-15 colon) [µM] | TGI (UO-31 renal) [µM] | TGI (OVCAR-3 ovarian) [µM] | TGI (CCRF-CEM leukemia) [µM] | TGI (MDA-N) [µM] | TGI (SF-295 CNS) [µM] | TGI (SK-MEL-28 melanoma) [µM] | TGI (SF-268 CNS) [µM] | TGI (EKVX NSCLC) [µM] | TGI (M14 melanoma) [µM] | TGI (786-0 renal) [µM] | TGI (MALME-3M melanoma) [µM] | TGI (NCI-H226 lung) [µM] | TGI (SK-MEL-2 melanoma) [µM] | TGI (HT29 colon) [µM] | TGI (K-562 leukemia) [µM] | TGI (MCF7 breast) [µM] | TGI (OVCAR-4 ovarian) [µM] | GI50 (K-562 leukemia) [µM]
1 | COc1ccc(/C(CCl)=C(\Nc2ccccc2)c2ccc(OC)c(OC)c2)cc1OC | > 100 | > 100 | > 100 | > 100 | > 100 | > 100 | > 100 | > 100 | > 100 | > 100 | > 100 | > 100 | > 100 | > 100 | > 100 | > 100 | > 100 | > 100 | > 100 | 
2 | OC(CC(CC(O)(C(F)(F)Cl)C(F)(F)Cl)=NNc1ccccc1)(C(F)(F)Cl)C(F)(F)Cl | > 10 | 9.16 |  | 6.38 | > 10 | 7.81 | 7.09 | 8.06 | 7.44 | 7.35 | > 10 | > 10 | 7.14 | 7.89 | 3.56 | > 10 | > 10 | 9.93 | > 10 | 
3 | Cn1c(NN)nc(-c2ccc([N+](=O)[O-])cc2)c(C#N)c1=O | 42.9 | 42.4 | 33.8 | 34.3 | > 100 | 24.9 | 29.9 | 25 | 31.1 | 44.1 | 25 | 27.2 | 29.7 | 28.7 | 41.3 | 28.7 | > 100 | 31.9 | 30.8 | 
4 | Nc1nc(N)c(C2=CCN(Cc3ccccc3)CC2)c(=O)[nH]1 | > 100 | > 100 | > 100 | > 100 | > 100 | > 100 | > 100 | > 100 | > 100 | > 100 | > 100 | > 100 | > 100 | > 100 | > 100 | > 100 | > 100 | > 100 | > 100 | 
5 | COc1cc(C2S/C(=C/c3ccccc3)C(=O)N2c2cc(Cl)ccc2Cl)cc(OC)c1OC (stereo not given) |  | > 100 | > 100 | > 100 | > 100 | > 100 | > 100 | > 100 | 53.1 | > 100 | 62.4 | 41.3 | > 100 | > 100 | > 100 | > 100 | > 100 | > 100 |  | 
6 | COc1ccc(OC)c([N+](=O)[O-])c1-c1nc2sccn2c1/C=N/N=C(N)N | > 100 | > 100 | > 100 | > 100 | > 100 | > 100 | > 100 | 68.3 | > 100 | > 100 | > 100 | > 100 | > 100 | > 100 | 93.2 | > 100 | > 100 | 54.2 |  | 
7 | O[C@@]1(c2cccs2)c2cccc(Cl)c2[C@](O)(c2cccs2)c2cccc(Cl)c21 | 37.6 | 61.7 | > 100 | 37.1 | > 100 | 36.4 | 31.3 | 37.8 | 66.8 | 44.9 | 31.5 | 32.5 | 37.2 | 57.1 | 42.4 | 35.5 | > 100 | 37.2 | 40.9 | 
8 | Cc1cc(C)nc(NS(=O)(=O)c2ccc(NN=c3c4ccccc4n(C)c4ccccc34)cc2)n1 | > 100 | > 100 | 71.7 | > 100 | 77.6 | 59.6 | > 100 | 67.7 | > 100 | 97.7 | > 100 | > 100 | 91.3 | > 100 | 58.8 | > 100 | 66.2 | 55.7 | 99.3 | 
9 | CCSc1c(C)c2c(n(Cc3ccc(OC)cc3)c1=O)Cc1ccccc1C2 | > 100 | > 100 | > 100 | > 100 | > 100 | > 100 | > 100 | > 100 | > 100 | 96.9 | 27.3 | 28.9 | 45.7 | > 100 | 66 | 72.2 | 60.9 | > 100 | > 100 | 
10 | CC1(C)CC(=O)/C(=C/C2CCNC2=S)C(=O)N1 (stereo not given) | > 100 | > 100 | > 100 | > 100 | > 100 | > 100 | > 100 | > 100 | > 100 | > 100 | > 100 | > 100 | > 100 | > 100 | > 100 | > 100 | > 100 | > 100 | > 100 | 
11 | CC1CC(C)[C@H](O)C([C@H](O)CC2CC(=O)N(C)C(=O)C2)C1 (stereo not given in full) | > 100 | > 100 | > 100 | > 100 | > 100 | > 100 | > 100 | > 100 | > 100 | > 100 | > 100 | > 100 | > 100 | > 100 | > 100 | > 100 | > 100 | > 100 | > 100 | 
12 | Cc1nc(Cl)c(Cl)c(Cl)n1 | 3.03 | 1.96 | 0.208 | 0.281 | 0.0333 | 3.15 | 3.58 | 1.2 | 4.27 | 1.17 | 0.48 | 1.47 | 0.573 | 6.04 | 2.73 | 0.442 | 0.0358 | 1.91 | 0.097 | 
13 | C=C(C)[C@@H]1C[C@H]2O[C@](O)(C(=C)CC(=O)/C=C(/C)C[C@@H]3OC(=O)[C@]24O[C@@H]34)[C@H]1O | > 100 | > 100 | > 100 |  | > 100 | > 100 | > 100 | > 100 | > 100 | > 100 | > 100 | > 100 | > 100 | > 100 | > 100 | > 100 | > 100 | > 100 | > 100 | 
14 | CC1=C(C(=O)N[C@@H](Cc2ccccc2)C(=O)O)N2C(=O)[C@@H](NC(=O)[C@@H](N)CC(C)C)[C@H]2SC1 | > 100 | > 100 |  | > 100 | > 100 | > 100 | > 100 | > 100 | > 100 | > 100 | > 100 | > 100 | > 100 | > 100 | > 100 |  | > 100 | > 100 | > 100 | 
15 | Cc1nc(Cl)c2sc(=S)n(-c3ccc(F)cc3)c2n1 | 24.1 | 15.1 | 3.17 | 7.02 | > 100 | 3.95 | 22.8 | 10.6 | 5.29 | 32.9 | 8.38 | 11.9 | 23.9 | 34.6 | 25.4 | 5.51 | > 100 | 13.2 | 31.4 | 
16 | CCC(CS(=O)(=O)O)[N+](=O)[O-] (stereo not given) | > 100 | > 100 | > 100 | > 100 | > 100 | > 100 | > 100 | > 100 | > 100 | > 100 | > 100 | > 100 | > 100 | > 100 | > 100 | > 100 | > 100 | > 100 | > 100 | 
17 | COC(=O)C1=C(OC(=O)/C(=C/c2ccc(Cl)cc2Cl)c2ccc(Cl)cc2Cl)C(C(=O)OC)[C@@]2(O)[C@@H](C(=O)OC)[C@H](C)C[C@@H]1[C@@H]2C(=O)OC (stereo not given in full) | > 100 | > 100 | > 100 | > 100 | > 100 | > 100 | > 100 | > 100 | > 100 | > 100 | > 100 | > 100 | > 100 | > 100 | > 100 | > 100 | > 100 | > 100 | > 100 | 
18 | C=CCN1C(=O)CC1N(CC=C)S(=O)(=O)c1ccc(C)cc1 (stereo not given) | > 100 | > 100 | > 100 | > 100 | > 100 | > 100 | > 100 | > 100 |  | > 100 | > 100 | > 100 | > 100 | > 100 |  | > 100 | > 100 | > 100 | > 100 | 
19 | NC(=O)C(c1ccccc1)N1OC2C(=O)N(Cc3ccccc3)C(=O)C2C1c1cccc(Oc2ccc(Cl)cc2)c1 (stereo not given) | > 100 | > 100 | 7.88 | 43.1 | > 100 | 49.7 | > 100 | > 100 | > 100 | 67.2 | 69.5 | 50 | > 100 | > 100 | 48.8 | 35.6 | 99.5 | 69.4 | > 100 | 
20 | CO[C@H]1[C@@H](O)[C@@H](C)O[C@@H](O[C@H]2CC[C@@]3(C)[C@H](CC[C@@H]4[C@@H]3CC[C@]3(C)[C@@H](C5=CC(=O)OC5)CC[C@]43O)C2)[C@@H]1O | 0.0932 | 0.0419 | 0.0108 | 0.013 | 0.37 | 0.0504 | 0.157 | 1.01 | 0.0366 | 0.0106 | 0.0479 | 0.01 | 0.00902 | 0.135 | 0.0538 | 0.0504 | 0.371 | 1.1 | 0.0322 | 0.00633
21 | CN1CCC(CNC(=O)CCCCCCCCC(=O)NCC2(c3ccccc3)CCN(C)CC2)(c2ccccc2)CC1 | > 100 | > 100 | > 100 | > 100 | > 100 | > 100 | > 100 | > 100 | 57.6 | 38.8 | > 100 | > 100 | > 100 | > 100 | > 100 | > 100 | > 100 | > 100 | > 100 | 
22 | N#Cc1nc(C2CC2)oc1N | > 100 | > 100 |  | > 100 | > 100 | > 100 | > 100 | > 100 | > 100 | > 100 | > 100 | > 100 | > 100 | > 100 | > 100 | > 100 | > 100 | > 100 | > 100 | 
23 | C=C1CC(Cn2ccc(=O)[nH]c2=O)(c2ccc(-c3ccccc3)cc2)OC1=O (stereo not given) | 24.7 | 3.72 | 16.5 | 4.03 | 1.2 | 3.5 | 25.3 | 5.34 | 46.3 | 29.9 | 3.58 | 1.67 | 3.42 | 13.6 | 4.55 | 3.27 | 1.53 | 2.67 |  | 
24 | O=c1[nH]c(=O)n(C2CC(O)C(CO)O2)cc1OCCc1ccccc1 (stereo not given) | > 100 | > 100 | > 100 | > 100 | > 100 | > 100 | > 100 | > 100 | > 100 | > 100 | > 100 | > 100 | > 100 | > 100 |  | > 100 | > 100 | > 100 | > 100 | 
